Tests used:
VP16dEcR/RXR = molecular target: T1, VP16dEcR/RXR (Drosophila melanogaster, UniProt P34021); test: VP16dEcR with RXR, (EcRE)5-ΔMTV reporter in CHO cells; type: cell-based; parameters: key to MurA (inducibility): (+) designates a change in transcriptional level that exceeds 2.5-fold; (++) indicates a response at a lower dosage than other EcR forms
T1 construct: expressed in transfected cells; host or cells: CHO
T1 sequence (P34021 252-878 limits assumed): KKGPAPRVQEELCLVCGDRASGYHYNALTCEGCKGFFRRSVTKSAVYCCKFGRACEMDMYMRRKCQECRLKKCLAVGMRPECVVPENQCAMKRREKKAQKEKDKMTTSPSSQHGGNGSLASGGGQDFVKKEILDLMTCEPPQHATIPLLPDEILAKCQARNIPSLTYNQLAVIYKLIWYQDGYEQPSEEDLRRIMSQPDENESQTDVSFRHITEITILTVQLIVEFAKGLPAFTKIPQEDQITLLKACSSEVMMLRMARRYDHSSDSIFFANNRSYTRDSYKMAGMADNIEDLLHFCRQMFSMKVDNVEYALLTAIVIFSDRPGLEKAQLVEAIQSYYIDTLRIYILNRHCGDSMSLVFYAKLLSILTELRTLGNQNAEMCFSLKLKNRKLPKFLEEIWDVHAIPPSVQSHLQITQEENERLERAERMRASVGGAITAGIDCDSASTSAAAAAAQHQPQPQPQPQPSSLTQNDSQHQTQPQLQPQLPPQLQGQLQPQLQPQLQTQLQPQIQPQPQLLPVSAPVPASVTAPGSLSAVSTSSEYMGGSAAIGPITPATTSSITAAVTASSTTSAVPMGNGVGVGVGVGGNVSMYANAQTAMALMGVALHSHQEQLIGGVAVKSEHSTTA
T1 sequence (P28700 1-467 partner): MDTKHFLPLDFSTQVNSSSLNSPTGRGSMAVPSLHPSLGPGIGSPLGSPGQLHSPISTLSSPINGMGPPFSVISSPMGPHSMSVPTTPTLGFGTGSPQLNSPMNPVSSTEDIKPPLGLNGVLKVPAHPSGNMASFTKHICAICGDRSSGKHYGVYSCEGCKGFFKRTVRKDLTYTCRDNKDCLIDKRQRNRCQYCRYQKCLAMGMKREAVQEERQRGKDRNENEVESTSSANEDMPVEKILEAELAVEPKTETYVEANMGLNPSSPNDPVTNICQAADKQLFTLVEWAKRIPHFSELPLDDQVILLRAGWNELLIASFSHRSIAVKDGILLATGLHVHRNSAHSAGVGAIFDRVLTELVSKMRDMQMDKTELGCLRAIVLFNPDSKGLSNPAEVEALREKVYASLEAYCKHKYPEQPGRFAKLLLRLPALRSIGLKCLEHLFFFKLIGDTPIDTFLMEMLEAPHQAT
Protocol: These experiments employed a mammalian cell culture system using Chinese hamster ovary cells (CHO) to evaluate the transcriptional function of Drosophila melanogaster EcR and USP using methods described previously (U.S. Patent Application Publication No: 2005/0049230; Henrich et al, 2003). Cells were seeded in 6-well polypropylene culture plates (Falcon) with 10^5 cells per well on the day prior to transfection. Transfection was subsequently performed using either calcium phosphate (Kitareewan et al., 1996, Mol. Biol. Cell, 7:1153-1196) or a GenePorter reagent (Gene Therapy Systems, Inc; San Diego, Calif.) following manufacturer's protocols. Each well received 1.25 μg of (EcRE)5-ΔMTV-CAT (five copies of the hsp27 EcRE inserted into an mouse mammary tumor virus (MTV) promoter upstream of the chloramphenicol acetyltransferase (CAT) gene) or (EcRE)5-ΔMTV-LUC (the same promoter attached to firefly luciferase), 1.25 μg of pCH111 (SV40 early promoter linked to the β-galactosidase gene) to normalize CAT activity, and 0.25 μg of each expression plasmid (EcR, FXR, RXR, USP) that was tested. The cells were incubated with plasmid DNA for seven hours and then washed with 1×PBS. Muristerone A (murA; Alexis Biochemicals) or 20-hydroxyecdysone (20E; Sigma) dissolved in ethanol to a concentration of 10 mM was diluted as necessary to the final assay concentration (FAC) in 2 ml of fresh incubation medium that was then applied to the cells. Similarly, JHIII (Sigma) was dissolved in dimethyl sulfoxide (DMSO) to a concentration of 80 μM and diluted into the incubation medium to its final assay concentration (20, 40, 80, 160 μM). […] A corresponding volume of ethanol and DMSO were added to control cells for all experiments. […] Both β-galactosidase and CAT reporter activity were measured based on previously used methods (Kitareewan et al, 1996). […]
Transcriptional activity, measured as ^14C-chloramphenicol counts (for measuring CAT activity) or relative luciferase activity (RLU) was quantified for each cell lysate. […]

FXR and USP = molecular target: T2, FXR and USP (Rattus norvegicus, UniProt Q62735); test: FXR with USP, reporter in CHO cells; type: cell-based
T2 construct: expressed in transfected cells; host or cells: CHO
T2 sequence (Q62735 1-469): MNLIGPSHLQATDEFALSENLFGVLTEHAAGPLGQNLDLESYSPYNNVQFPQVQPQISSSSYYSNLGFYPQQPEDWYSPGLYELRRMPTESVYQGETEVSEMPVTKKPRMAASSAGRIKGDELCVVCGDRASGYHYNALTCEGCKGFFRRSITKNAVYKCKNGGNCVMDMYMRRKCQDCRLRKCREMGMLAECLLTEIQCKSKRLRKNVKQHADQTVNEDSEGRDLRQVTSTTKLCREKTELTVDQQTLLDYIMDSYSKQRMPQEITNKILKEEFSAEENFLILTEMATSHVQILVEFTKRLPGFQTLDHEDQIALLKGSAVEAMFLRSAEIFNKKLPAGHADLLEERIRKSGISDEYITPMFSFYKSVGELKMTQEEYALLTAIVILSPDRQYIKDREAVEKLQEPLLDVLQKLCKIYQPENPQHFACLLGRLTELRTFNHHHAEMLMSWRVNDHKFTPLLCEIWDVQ
Protocol: These experiments employed a mammalian cell culture system using Chinese hamster ovary cells (CHO) to evaluate the transcriptional function of Drosophila melanogaster EcR and USP using methods described previously (U.S. Patent Application Publication No: 2005/0049230; Henrich et al, 2003). Cells were seeded in 6-well polypropylene culture plates (Falcon) with 10^5 cells per well on the day prior to transfection. Transfection was subsequently performed using either calcium phosphate (Kitareewan et al., 1996, Mol. Biol. Cell, 7:1153-1196) or a GenePorter reagent (Gene Therapy Systems, Inc; San Diego, Calif.) following manufacturer's protocols. Each well received 1.25 μg of (EcRE)5-ΔMTV-CAT (five copies of the hsp27 EcRE inserted into an mouse mammary tumor virus (MTV) promoter upstream of the chloramphenicol acetyltransferase (CAT) gene) or (EcRE)5-ΔMTV-LUC (the same promoter attached to firefly luciferase), 1.25 μg of pCH111 (SV40 early promoter linked to the β-galactosidase gene) to normalize CAT activity, and 0.25 μg of each expression plasmid (EcR, FXR, RXR, USP) that was tested. The cells were incubated with plasmid DNA for seven hours and then washed with 1×PBS. Muristerone A (murA; Alexis Biochemicals) or 20-hydroxyecdysone (20E; Sigma) dissolved in ethanol to a concentration of 10 mM was diluted as necessary to the final assay concentration (FAC) in 2 ml of fresh incubation medium that was then applied to the cells. Similarly, JHIII (Sigma) was dissolved in dimethyl sulfoxide (DMSO) to a concentration of 80 μM and diluted into the incubation medium to its final assay concentration (20, 40, 80, 160 μM). […] A corresponding volume of ethanol and DMSO were added to control cells for all experiments. For all experiments, the cells were allowed to incubate with the medium for 24 hours before collection and cell lysates were prepared by described methods (Kitareewan et al., 1996). Both β-galactosidase and CAT reporter activity were measured based on previously used methods (Kitareewan et al, 1996). […]

SMILES | 20E (inducibility) (VP16dEcR/RXR; 10 μM 20E) | elevation of FXR-mediated activity by ecdysteroid added with JHIII (FXR and USP) | MurA + JHIII (JHIII potentiation) (VP16dEcR/RXR; 0.1 μM murA + 80 μM JHIII) | response of FXR and USP to JHIII (FXR and USP; CHO cells) | MurA (inducibility) (VP16dEcR/RXR; 0.1 μM murA)
CC(C)(O)CC[C@@H](O)[C@](C)(O)[C@H]1CC[C@@]2(O)C3=CC(=O)[C@@H]4C[C@@H](O)[C@@H](O)C[C@]4(C)[C@H]3CC[C@]12C [20E, 20-hydroxyecdysone] | + ((+) designates a change in transcriptional level that exceeds 2.5-fold) | no elevation |  |  | 
COC(=O)/C=C(\C)CC/C=C(\C)CC[C@H]1OC1(C)C [JHIII, juvenile hormone III] |  |  | + ((+) indicates observed potentiation that exceeds 2-fold above the levels observed with ecdysteroid alone) | low level response | 
CC(C)CC[C@@H](O)[C@](C)(O)[C@H]1CC[C@@]2(O)C3=CC(=O)[C@]4(O)C[C@@H](O)[C@@H](O)C[C@]4(C)[C@H]3[C@H](O)C[C@]12C [murA, muristerone A] |  | no elevation |  |  | ++

From patent US8637237B2, “Methods, compositions, and systems for the identification of species-specific or developmental stage-specific insecticides” (The University of North Carolina at Greensboro, priority 2003, dated 2014)
